B1: MHPH6: MHP hydantoin transporter protein containing the RGSHis6-Tag at the C-terminal (SEQ ID No. 3/4) (protein)
chain: MNSTPIEEARSLLNPSNAPTRYAERSVGPFSLAAIWFAMAIQVAIFIAAGQMTSSFQVWQVIVAIAAGCTIAVILLFFTQSAAIRWGINFTVAARMPFGIRGSLIPITLKALLSLFWFGFQTWLGALALDEITRLLTGFTNLPLWIVIFGAIQVVTTFYGITFIRWMNVFASPVLLAMGVYMVYLMLDGADVSLGEVMSMGGENPGMPFSTAIMIFVGGWIAVVVSIHDIVKECKVDPNASREGQTKADARYATAQWLGMVPASIIFGFIGAASMVLVGEWNPVIAITEVVGGVSIPMAILFQVFVLLATWSTNPAANLLSPAYTLCSTFPRVFTFKTGVIVSAVVGLLMMPWQFAGVLNTFLNLLASALGPLAGIMISDYFLVRRRRISLHDLYRTKGIYTYWRGVNWVALAVYAVALAVSFLTPDLMFVTGLIAALLLHIPAMRWVAKTFPLFSEAESRNEDYLRPIGPVAPADESATANTKEQNQPAGGRGSHHHHHH
modifications: C-terminal RGSHis6 tag; RGSH6

Legend:
MHPH6 [1] = target: T1, MHPH6 (Microbacterium maritypicum, UniProt D6R8X8); test: Substrate screening: competitive inhibition of 3H-L-BH uptake by E. coli BLR/pSHP11H; format: cell-based, Microbacterium liquefaciens AJ3912; details: for competitive inhibitory activity against L-BH uptake (in words): 250 μM cold candidate; for competitive inhibitory activity against L-BH uptake (in words) / uptake activity of 3H-L-BH (relative activity, no compound added = 100%): uptake after 3 minutes; for uptake activity of 3H-L-BH (relative activity, no compound added = 100%): 250 μM cold compound; for relative affinity for MHPH6 (affinity of L-BH = 1): curve-fitted assuming simple competitive inhibition, variety of concentrations
T1 construct: expressed in transfected cells; host or cells: E. coli BLR transformed with pSHP11H (pTTQ18 derivative), IPTG-induced
T1 sequence (D6R8X8 with tags, fused parts or gaps): B1 chain
Method: 25 μM of ^3H-L-BH was employed as the RI-labeled substrate in the above-described reaction using intact cells, and a reaction liquid was prepared by adding 250 μM of a candidate substrate (cold). The uptake amount of ^3H-L-BH after 3 minutes from the addition thereof was compared with the amount without the candidate substrate, to calculate the competitive inhibitory activity of each candidate substrate against L-BH, for evaluating the potentiality of each candidate substance as the substrate for MHP.
Affinity of a variety of compounds to MHPH6 was measured based on the competitive inhibitory activity thereof against L-BH uptake by E. coli BLR/pSHP11H, to search for substrates for MHPH6 (FIG. 8). […] When the four compounds showing strong inhibitive activity were added, the uptake activities of ^3H-L-BH (the relative activity with respect to when not adding any compound as 100%) were 7% (L-BH, theoretical value 9%), 47% (D-BH), 3% (L-IMH) and 24% (D- IMH).
The competitive inhibition experiments were carried out, as for substrate screening, with a variety of substrate concentrations. As a result, the affinity of D- and L-BH and D- and L-IMH for MHPH6 was different from one another, and the intensity of the affinity was in the order of L-IMH (solid triangle), L-BH (solid circle), D-IMH (open triangle) and D-BH (open circle) from the strongest. Assuming that ^3H-L-BH and the added cold compound were under simple competitive inhibition, the experimental results were curve-fitted. As a result, the relative affinity for each compound was calculated to be 5.32 (L-IMH), 1.05 (L-BH, experimental value), 0.96 (D-IMH), and 0.20 (D-BH), with respect to the affinity of L-BH and MHPH6 being 1.

MHPH6 [2] = target: T1, MHPH6; test: Uptake assay using intact cells of E. coli BLR/pSHP11H (RI-labelled substrate); format: cell-based; details: for initial uptake rate / uptake amount 5 minutes after the addition of the substrate: induced E. coli BLR/pSHP11H, 25 μM substrate; for initial uptake rate: data at 15 seconds after substrate addition; for uptake amount 5 minutes after the addition of the substrate: pH 6.6, 25° C., per dry cell weight
Source text: The activity of the hydantoin transporter can be measured by an uptake assay using intact cells. The uptake assay using intact cells may be carried out in accordance with the method of West, and Henderson (I. C. West (1970) Lactose transport coupled to proton movements in Escherichia coli, Biochem. Biophys. Res. Commun. 41: 655-661; P. J. F. Henderson and A. J. S. Macpherson (1986), Assay, genetics, proteins, and reconstitution of proton-linked galactose, arabinose, and xylose transport systems of Escherichia coli, Methods Enzymol. 125: 387-429).
Specifically, the uptake reaction may be carried out by adding an RI-labelled substrate (^3H—BH (benzyl hydantoin), ^3H—IMH (indolylmethyl hydantoin)) to a suspension of the cells that express the hydantoin transporter. After initiating the reaction, sampling may be conducted at time intervals. Immediately after sampling, each aliquot may be collected by a filter of 0.45 μm pore size (preincubated in a washing liquid of 150 mM KCl, 5 mM MES (pH 6.6)) and washed thoroughly by the rinsing liquid. Thereafter, by measuring radioactivity remaining on the filter with a liquid scintillation counter, the substrate uptaken into the cells is quantified, and the hydantoin-transporter activity can be determined.
The methods of West (I. C. West (1970), Lactose transport coupled to proton movements in Escherichia coli. Biochem. Biophys. Res. Commun. 41: 655-661.) and Henderson (P. J. F. Henderson and A. J. S. Macpherson (1986), Assay, genetics, proteins, and reconstitution of proton-linked galactose, arabinose, and xylose transport systems of Escherichia coli, Methods Enzymol. 125: 387-429.) were employed.
The collected cells were washed three times with 150 mM KCl, 5 mM MES (2-[N-Morpholino]ethanesulphonic acid) (pH 6.6) and were then used in the assay. The basic reaction conditions included uptake initiation by adding glycerol to a final concentration of 20 mM to a cell suspension having an absorbance at about A680 of approximately 2 to 4, followed by aeration at 25° C. for 3 minutes, and then addition of an RI-labelled substrate (relative RI activity: ^3H—BH 107 Bq/nmol, ^3H—IMH 241 Bq/nmol) to a final concentration of 25 μM. After the onset of the reaction (aeration was continued), sampling was done over time. Immediately after the sampling, each aliquot was passed through a filter with a pore size of 0.45 μm (pre-incubated in a washing solution of 150 mM KCl and 5 mM MES (pH 6.6)) which was then washed sufficiently with a washing solution. The radiation remaining on the filter was measured by a liquid scintillation counter. The uptake activity was expressed in terms of the dry cell weight that was calculated by taking the absorbance A680=1 as the dry cell concentration of 0.68 mg/ml (Ashworth and Kornberg, Biological Science, 165(999):179-188 (1966)). Furthermore, the initial uptake rate was calculated based on the data obtained at 15 seconds after the addition of substrate, and expressed in terms of the uptake amount per minute.
In the measurement of the inhibitory activity of the inhibitor, the inhibitor was added at the time of onset of aeration. That is, it was pre-incubated with the cells for 3 minutes prior to the substrate addition. The inhibitor used was 2,4-dinitrophenol (DNP), and the final concentration during the reaction was 20 mM.
For varying the pH of the reaction liquid, 10 mM potassium acetate (pH 4.0), 5 mM MES (pH 4.9, 6.1, 6.6, 7.1, 7.9), 10 mM Tris-HCl (pH 8.0) and 10 mM glycin-NaOH (pH 10.0) were used when appropriate.

[3] = CD spectroscopy heat stability of purified MHPH6; format: physicochemical
Method: The buffer solution suspending the purified MHPH6 was replaced by 10 mM sodium phosphate (pH 7.6) with 0.05% (w/v) DDM, using an ultrafiltration apparatus (Centricon C50, Millipore). In this buffer solution, the protein concentration was adjusted to 50 μg/ml, and the CD spectroscopy was carried out at 10° C. (JASCO J-715 Spectropolarimeter). The measurement was performed at a wavelength ranging from 190 to 260 nm, and the average value of twenty measurements was taken. Furthermore, the change in the secondary structure of MHPH6 (heat stability) was observed by measuring the change of the CD unit value at a wavelength of 222 nm as the temperature of the sample was varied from 10° C.→90° C.→10° C. (the temperature change was made 10° C. at a time, and the length of time at each temperature was approximately 10 minutes).

[4] = CD at 222 nm, 10 mM sodium phosphate pH 7.6, 0.05% DDM

Molecule | competitive inhibitory activity against L-BH uptake (in words) (MHPH6 [1]; 25 μM 3H-L-BH) | uptake activity of 3H-L-BH (relative activity, no compound added = 100%) (MHPH6 [1]; 25 μM 3H-L-BH) [%] | relative affinity for MHPH6 (affinity of L-BH = 1) (MHPH6 [1]) | other results
CC(C)CC1NC(=O)NC1=O (racemic) [5-DL-isobutyl hydantoin] | Weaker inhibitory activity | – | – | –
CC(C)C1NC(=O)NC1=O (racemic) [5-DL-isopropyl hydantoin] | Weaker inhibitory activity | – | – | –
CC1NC(=O)NC1=O (racemic) [5-DL-methyl hydantoin] | Weaker inhibitory activity | – | – | –
O=C1NC(=O)C(Cc2ccc(O)cc2)N1 (racemic) [5-DL-p-hydroxybenzyl hydantoin] | Weaker inhibitory activity | – | – | –
CC(C)C[C@@H]1NC(=O)NC1=O [5-L-isobutyl hydantoin] | Weaker inhibitory activity | – | – | –
CC(C)[C@@H]1NC(=O)NC1=O [5-L-isopropyl hydantoin] | Weaker inhibitory activity | – | – | –
O=C1NC(=O)[C@@H](Cc2ccccc2)N1 [D-BH] | strong activity of competitive inhibition | 47 | 0.20 | –
O=C1NC(=O)[C@@H](Cc2c[nH]c3ccccc23)N1 [D-IMH] | strong activity of competitive inhibition | 24 | 0.96 | –
O=[N+]([O-])c1ccc(O)c([N+](=O)[O-])c1 [DNP, 2,4-dinitrophenol, reference compound] | – | – | – | effect on L-IMH uptake, induced sample (MHPH6 [2]; DNP 20 mM, pre-incubated 3 minutes, induced sample): decreased the amount of L-IMH uptake; effect on L-IMH uptake, uninduced sample (MHPH6 [2]; DNP 20 mM, pre-incubated 3 minutes, uninduced sample): substantially no effect
O=C1NC(=O)C(Cc2ccccc2)N1 [L-BH, 5-L-benzyl hydantoin] | strong activity of competitive inhibition | 7 | 1.05 | initial uptake rate (MHPH6 [2]): 0.64 nmol/mg/min; uptake amount 5 minutes after the addition of the substrate (MHPH6 [2]): 0.27 nmol/mg; uptake activity of 3H-L-BH, theoretical value (MHPH6 [1]; 250 μM cold L-BH, 25 μM 3H-L-BH): 9%
O=C1NC(=O)[C@H](Cc2c[nH]c3ccccc23)N1 [L-IMH, 5-L-indolylmethyl hydantoin] | strong activity of competitive inhibition | 3 | 5.32 | initial uptake rate (MHPH6 [2]): 2.5 nmol/mg/min; uptake amount 5 minutes after the addition of the substrate (MHPH6 [2]): 0.91 nmol/mg; initial uptake rate as compared with the initial rate at pH 6.6 (MHPH6 [2]; pH 4.0): approximately 10%; initial uptake rate as compared with the initial rate at pH 6.6 (MHPH6 [2]; pH 10.0): approximately 10%; pH at which initial uptake rate is maximal (MHPH6 [2]; pH varied between 4.0 and 10.0, induced and uninduced samples): 6.6; initial uptake rate, L-IMH relative to L-BH (MHPH6 [2]; ratio L-IMH / L-BH): 3.9 times; uptake amount 5 minutes after addition of substrate, L-IMH relative to L-BH (MHPH6 [2]; ratio L-IMH / L-BH): 3.4 times; affinity relative to that of L-BH (estimated) (MHPH6 [1]; L-IMH versus L-BH): approximately 5 times
NC(=O)NC1NC(=O)NC1=O (centres unmarked) [allantoin, reference compound] | did not result in any inhibition | – | – | –
B1 | – | – | – | temperature at which higher structure began to be destroyed [3, 4]: ≥ 30 °C; temperature at which higher structure was almost completely destroyed [3, 4]: 70 °C; reversibility of thermal denaturation ([3]; temperature 10→90→10° C.): irreversible
